From paper PMC11054735, “LDLR-Mediated Targeting and Productive Uptake of siRNA-Peptide Ligand Conjugates In Vitro and In Vivo” (Pharmaceutics, 2024)
Like-named read-outs stand apart in the source and are kept apart here.

How the values were obtained:
[1] = incubation at 2 mM in freshly collected mouse blood at 37 °C; LC-MS/MS on plasma fractions; peptide described elsewhere; cited from earlier work
Source text: Among the family of peptide-based vectors we identified, the VH4127 (cyclo[(D)-Cys-Met-Thz-Arg-Leu-Arg-Gly-Pen]) peptide ligand used in this study was described elsewhere. Briefly, it was obtained by high-throughput screening of phage display peptide libraries on engineered cell lines expressing the mouse and human LDLR, and was further chemically optimized for optimal LDLR-binding affinity and plasma stability. The VH4127 peptide contains three non-natural amino-acids D-Cys, Thz, and Pen (at positions 1, 3, and 8, respectively), and a disulfide bridge between D-Cys and Pen side ...

SOD1 mRNA in liver = assay: In vivo gene silencing in mouse liver after i.v. administration, RT-qPCR; conditions: C57Bl/6JRj mice, single i.v. bolus 1 µmole/kg (15 mg/kg siRNA) in PBS, liver 7 days post-administration
Description: Wild-type male C57Bl/6JRj mice (Janvier Labs, Le Genest-Saint-Isle, France) aged 10–12 weeks old were used. All animal studies were approved by the ethics committee for animal experimentation (CEEA-N°14) and approved by French ministry of agriculture (MRC). […] Intravenous (i.v., lateral tail vein) administrations (15 mg/kg) were performed on conscious restrained mice. Following a 7-day observational period, animals were euthanized by an intraperitoneal overdose of Ketamin-Xylasine mixture (Sigma Aldrich, Saint-Quentin-Fallavier, France), and tissue samples were collected after extensive blood wash-out by intracardiac perfusion (Left ventricle, Flow rate 8 mL/min) of a saline solution (0.9%) and immediately stored at −20 °C in 10 vol NucleoProtect RNA stabilization reagent (Macherey-Nagel, Düren, Germany) before further RNA extraction and target mRNA quantification.
(§1) For in vitro free uptake experiments, the total RNA was extracted using the NucleoSpin RNA XS (Macherey Nagel, Hoerdt, France) according to the manufacturer’s recommendations. For transfection experiments the SuperScript™ IV CellsDirect™ cDNA Synthesis kit (Thermo Fisher Scientific) was used according to manufacturer’s recommendations. For in vivo experiments, mouse organs were crushed in 2 mL tubes pre-filled with ceramic mixture in Precellys®Cryolys® Evolution (Bertin, Montigny le Bretonneux, France) with a QIAZOL lysis buffer (Qiagen, Venlo, The Netherlands). A volume of 150 µL of chloroform (Sigma Aldrich) was added to 750 µL of tissue homogenate and a phenol/chloroform separation was performed using centrifugation for 15 min at 6000× g at 4 °C. Aqueous phases were recovered and RNA extraction was performed with the RNeasy 96 QIAcube HT Kit (Qiagen) according to the manufacturer’s recommendations, in a QIACUBE HT instrument (Qiagen). […] For reverse transcription (RT), 500 ng of total RNA were used (except for cells treated with SuperScript™ IV CellsDirect™ cDNA Synthesis), and cDNA synthesis was performed using the High-Capacity RNA-to-cDNA™ kit (Thermo Fisher Scientific) according to the manufacturer’s recommendations.
(§2) Real-time quantitative PCR (RT-qPCR) assays were performed using the CFX96 Touch Real-Time PCR Detection System (Bio-Rad, Hercules, CA, USA). […] The following primers were used: Mm01344233_g1 SOD1 (mouse), Mm02526700_g1 RpL13 (mouse), Mm01352366_m1 SDHA (mouse), Mm00457191_m1 PSMC4 (mouse). RpL13, SDHA, or PSMC4 served as internal controls for sample normalization, and the comparative cycle threshold method (2−ΔΔCt) was used for data quantification. Finally, gene expression ratios (compared to control samples) were determined.
The in vivo targeting and functional uptake potential of LDLR-binding siSOD1-peptide conjugates was evaluated as follows.
Mice were injected (i.v. lateral tail vein) with unconjugated siRNAs and siSOD1-peptide conjugates in PBS (15 mg/kg). Seven days post-administration mice were euthanized and perfused with saline solution (0.9% NaCl). Organs were collected to assess the SOD1 mRNA levels using RT-qPCR.

[2] = test system: mSOD1 mRNA in Neuro-2a cells; assay: Gene silencing by free uptake in Neuro-2a cells, RT-qPCR; assay type: cell-based, mouse; conditions: 1 µM, 3 days at 37 °C, DMEM with 1% fetal calf serum
Description: Neuro-2a cells were plated in a 48-well plate at 13,000 cells/well the day before the test. All siRNA and conjugates were incubated during 3 days at 37 °C with 1 µM of conjugate prepared in DMEM supplemented with 1% fetal calf serum. At the end of the incubation period, cells were washed once with D-PBS before RNA extraction. For in vitro free uptake experiments, the total RNA was extracted using the NucleoSpin RNA XS (Macherey Nagel, Hoerdt, France) according to the manufacturer’s recommendations. For transfection experiments the SuperScript™ IV CellsDirect™ cDNA Synthesis kit (Thermo Fisher Scientific) was used according to manufacturer’s recommendations. […] Aqueous phases were recovered and RNA extraction was performed with the RNeasy 96 QIAcube HT Kit (Qiagen) according to the manufacturer’s recommendations, in a QIACUBE HT instrument (Qiagen). […] For reverse transcription (RT), 500 ng of total RNA were used (except for cells treated with SuperScript™ IV CellsDirect™ cDNA Synthesis), and cDNA synthesis was performed using the High-Capacity RNA-to-cDNA™ kit (Thermo Fisher Scientific) according to the manufacturer’s recommendations. Real-time quantitative PCR (RT-qPCR) assays were performed using the CFX96 Touch Real-Time PCR Detection System (Bio-Rad, Hercules, CA, USA). […] Finally, gene expression ratios (compared to control samples) were determined. […] (A) Transfection of unconjugated siSOD1 and siSOD1-peptide conjugates on Neuro-2a cells at 30 nM. […] (B) Free uptake experiments of unconjugated siSOD1 and siSOD1-peptide conjugates on Neuro-2a cells at 1 µM. […] Each dot corresponds to the mean value obtained in independent experiments.

[3] = test system: mSOD1 mRNA in Neuro-2a cells; assay: Gene silencing after transfection (DharmaFECT 2) in Neuro-2a cells, RT-qPCR; assay type: cell-based, mouse; conditions: DharmaFECT 2, 30 nM, 24 h at 37 °C
Description: Neuro-2a cells were plated in a 96-well plate at 4000 cells/well one day before experiments. According to DharmaFECT general manufacturer’s protocol (Horizon Discovery), cells were transfected with a mix containing the DharmaFECT 2 and 30 nM of tested compound. […] At the end of the incubation period, Neuro-2a cells were washed once with D-PBS before RNA extraction.
as §1, §2
(A) Transfection of unconjugated siSOD1 and siSOD1-peptide conjugates on Neuro-2a cells at 30 nM. […] (B) Free uptake experiments of unconjugated siSOD1 and siSOD1-peptide conjugates on Neuro-2a cells at 1 µM. After 3 days at 37 °C, mSOD1 mRNA levels were quantified using RT-qPCR. Each dot corresponds to the mean value obtained in independent experiments. (C) Free uptake experiments of siSOD1-31, -35, -36, -37 conjugates with their respective negative controls siSOD1-31Sc, -35Sc, -36Sc, -37Sc on Neuro-2a cells at 1 µM.

[4] = biological target: T1, His-tagged recombinant mouse LDLR (extracellular domain, mLDLR-ECD) (Mus musculus, UniProt P35951); assay: SPR LDLR-binding affinity (multiple-cycle kinetics, equilibrium KD); conditions: SPR Biacore T200, 25 °C, mLDLR on NiHC1000m chip (700–2000 RU), MCK mode, 50 mM HEPES-NaOH pH 7.4 running buffer, analyte 0.6–640 nM or 0.6–40 nM, equilibrium response fit, means ± SD of n = 6 (triplicate analysis of 2 independent experiments), read-out: Affinities SPR (equilibrium dissociation constant, KD)
T1 construct: recombinant mouse LDLR (extracellular domain, mLDLR-ECD); purchased SinoBiological (Beijing, China)
Description: His-tagged recombinant mouse LDLR (extracellular domain, mLDLR-ECD) was purchased from SinoBiological (Beijing, China). SPR measurements were performed at 25 °C using a Biacore T200 apparatus (Cytiva) and 50 mM HEPES-NaOH pH 7.4, 150 mM NaCl, 50 μM EDTA, 0.005% Tween-20 (v/v), 10 mM Imidazole as running buffer. mLDLR was immobilized on a NiHC1000 m sensor chip (Xantec, Dusseldorf, Germany) at a density of around 10–30 fmol/mm^2. A control flowcell without mLDLR was used as reference. The multiple-cycle kinetic (MCK) method was applied to study molecular interactions of peptides and conjugates. Seven to 11 different concentrations of the analyte were prepared by two-fold dilutions in running buffer (0.6–640 nM or 0.6–40 nM) and successively injected over the flowcells during 120 s at 30 μL/min with a dissociation time of 300 s. Blank runs of running buffer were performed in the same conditions and subtracted from sample runs before evaluation. Equilibrium dissociation constants (KD) were calculated by plotting saturation binding curves using the equilibrium response at the plateau of all curves with BiaEvaluation version 2.0 software. All data are the means of six determinations (triplicate analysis of 2 independent experiments).

T1 sequence (P35951 22-790 limits assumed): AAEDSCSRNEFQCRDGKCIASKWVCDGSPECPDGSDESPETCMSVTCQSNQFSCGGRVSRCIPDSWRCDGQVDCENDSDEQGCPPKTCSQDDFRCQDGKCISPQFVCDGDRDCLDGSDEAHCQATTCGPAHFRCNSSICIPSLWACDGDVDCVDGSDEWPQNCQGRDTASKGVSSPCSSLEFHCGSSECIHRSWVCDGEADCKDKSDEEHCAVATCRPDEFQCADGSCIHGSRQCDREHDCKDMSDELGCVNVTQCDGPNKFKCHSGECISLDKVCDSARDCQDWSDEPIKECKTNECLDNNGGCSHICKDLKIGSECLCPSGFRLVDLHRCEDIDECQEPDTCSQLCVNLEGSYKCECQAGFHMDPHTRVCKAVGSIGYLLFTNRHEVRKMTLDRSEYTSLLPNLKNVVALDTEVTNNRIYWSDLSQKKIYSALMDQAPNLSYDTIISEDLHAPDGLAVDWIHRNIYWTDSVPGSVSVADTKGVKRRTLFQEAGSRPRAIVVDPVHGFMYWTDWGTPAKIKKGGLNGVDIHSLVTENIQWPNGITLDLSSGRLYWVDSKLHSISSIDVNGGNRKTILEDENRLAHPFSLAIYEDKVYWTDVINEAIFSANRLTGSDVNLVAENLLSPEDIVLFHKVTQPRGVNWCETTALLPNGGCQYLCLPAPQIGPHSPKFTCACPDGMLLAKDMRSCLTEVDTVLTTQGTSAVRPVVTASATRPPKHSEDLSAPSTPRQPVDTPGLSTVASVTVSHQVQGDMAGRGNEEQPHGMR

Molecule	In vitro plasma stability, estimated half-life [1] [h]	In Vivo KD, Liver (SOD1 mRNA knock-down) (SOD1 mRNA in liver)	In Vitro KD on N2A, Free Uptake (mSOD1 mRNA knock-down) [2]	In Vitro KD on N2A, Transfection (mSOD1 mRNA knock-down) [3] [%]	Kd ([4]; SD) [nM]	Kd [4] [nM]
CCC(=O)N[C@@H]1CSSC(C)(C)[C@@H](C(N)=O)NC(=O)CNC(=O)[C@H](CCCNC(=N)N)NC(=O)[C@H](CC(C)C)NC(=O)[C@H](CCCNC(=N)N)NC(=O)[C@@H]2CSCN2C(=O)[C@H](CCSC)NC1=O [VH4127, cyclo[(D)-Cys-Met-Thz-Arg-Leu-Arg-Gly-Pen]]	4.27	–	–	–	–	–
Pr-K(N3)-PEG2-[cMThzRLRGPen]c-NH2 (disulfide) [siSOD1-31]	–	40%	55%	>90	104 ± 11.7	87 to 104
Pr-K(N3)-PEG2-[cMThzRLRGPen]c-NH2 (disulfide) [siSOD1-33]	–	~50%	–	>90	12.8 ± 1.9	–
Pr-K(N3)-PEG2-[cMThzRLRGPen]c-NH2 (disulfide) [siSOD1-36]	–	30%	60%	>90	25 ± 1.2	–
Pr-K(N3)-PEG2-[cMThzRLRGPen]c-NH2 (disulfide) [siSOD1-37]	–	35%	60%	>90	31.9 ± 1.6	–
Pr-[cMThzRLRGPenG]c-OH (disulfide) [siSOD1-35]	–	50%	improved KD effect compared to its non-binding control siSOD1-35sc	>90	11.3 ± 2.9	–
Pr-[cMThzRLRGPen]c-PEG2-K(N3)-NH2 (disulfide) [siSOD1-32]	–	~ 20%	did not show improvement compared to the unconjugated 5′P-siSOD1	40	86.8 ± 17.1	87 to 104
